Measurements from US20150080337A1, “N-CYCLOALKYL-N-[(TRISUBSTITUTEDSILYLPHENYL)METHYLENE]-(THIO)CARBOXAMIDE DERIVATIVES” (BAYER CROPSCIENCE, priority 2012, published 2015).

Legend:
[1] = log P by HPLC on reversed-phase column (C 18), EEC Directive 79/831 Annex V.A8; format: physicochemical; conditions: HPLC C 18, 40° C., 0.1% aqueous formic acid and acetonitrile, gradient 10% to 90% acetonitrile
Protocol: In table 1, the log P values were determined in accordance with EEC Directive 79/831 Annex V.A8 by HPLC (High Performance Liquid Chromatography) on a reversed-phase column (C 18), using the method described below:
Temperature: 40° C.; Mobile phases: 0.1% aqueous formic acid and acetonitrile; linear gradient from 10% acetonitrile to 90% acetonitrile.
Calibration was carried out using unbranched alkan-2-ones (comprising 3 to 16 carbon atoms) with known log P values (determination of the log P values by the retention times using linear interpolation between two successive alkanones). lambda-max-values were determined using UV-spectra from 200 nm to 400 nm and the peak values of the chromatographic signals.
In table 2, M+H (Apcl+) and log P are defined as for table 1.

[2] = tested on: Uromyces appendiculatus; test: In vivo preventive test on Uromyces appendiculatus (bean rust); conditions: 500 ppm of active ingredient; bean plants sprayed 24 hours before contamination; grading 11 days after contamination vs control plants
Protocol: (§1) The active ingredients tested are prepared by homogenization in a mixture of acetone/tween/DMSO, and then diluted with water to obtain the desired active material concentration.
Bean plants (“Saxa” variety), sown in starter cups on a 50/50 peat soil pozzolana substrate and grown at 24° C., are treated at the 2 leaf stage (9 cm height) by spraying with the active ingredient prepared as described above. Plants, used as controls, are treated with the mixture of acetone/tween/DMSO/water not containing the active material.
(§2) After 24 hours, the plants are contaminated by spraying the leaves with an aqueous suspension of Uromyces appendiculatus spores (150 000 spores per mL). The spores are collected from infected plants and are suspended in water containing 2.5 mL/L of Tween 80 at 10%. The contaminated bean plants are incubated for 24 hours at 20° C. and at 100% relative humidity, and then for 10 days at 20° C. and at 70-80% relative humidity.
Grading (% of efficacy) is carried out 11 days after the contamination, in comparison with the control plants.
Under these conditions, good (at least 70%) to total protection is observed at a dose of 500 ppm of active ingredient with the following compounds from table G: […]

[3] = tested on: Puccinia recondita; test: In vivo test on Puccinia recondita (brown rust); conditions: 500 ppm of active ingredient; wheat plants sprayed 24 hours before contamination; grading 12 days after contamination vs control plants
Protocol: as §1
(§3) Wheat plants (“Scipion” variety), sown in starter cups on a 50/50 peat soil pozzolana substrate and grown at 22° C., are treated at the 1 leaf stage (10 cm height) by spraying with the active ingredient prepared as described above. Plants, used as controls, are treated with the mixture of acetone/tween/DMSO/water not containing the active material.
as §2, with “of Puccinia recondita” for “of Uromyces appendiculatus”, “spores (100” for “spores (150”, “from an” for “from”, “infected plant” for “infected plants”, “contaminated wheat” for “contaminated bean”
(§4) Grading (% of efficacy) is carried out 12 days after the contamination, in comparison with the control plants.
Under these conditions, good (at least 70%) to excellent (at least 90%) protection is observed at a dose of 500 ppm of active ingredient with the following compounds from table C: […]

[4] = tested on: Sphaerotheca fuliginea; test: In vivo test on Sphaerotheca fuliginea (cucurbits powdery mildew); conditions: 500 ppm of active ingredient; gherkin plants sprayed 24 hours before contamination; grading 12 days after contamination vs control plants
Protocol: The active ingredients tested are prepared by homogenization in a mixture of acetone/tween/DMSO and then diluted with water to obtain the desired active material concentration.
Gherkin plants (“Vert petit de Paris” variety), sown in starter cups on a 50/50 peat soil-pozzolana substrate and grown at 24° C., are treated at the Z11 cotyledon stage by spraying with the active ingredient prepared as described above. Plants, used as controls, are treated with the mixture of acetone/tween/DMSO/water not containing the active material.
After 24 hours, the plants are contaminated by spraying the cotyledons with an aqueous suspension of Sphaerotheca fuliginea spores (100 000 spores per mL). The spores are collected from infected plants. The contaminated gherkin plants are incubated at about 20° C. and at 70-80% relative humidity.
as §4
Under these conditions, good (at least 70%) to total protection is observed at a dose of 500 ppm of active ingredient with the following compounds from table A: […]

[5] = tested on: Septoria tritici; test: In vivo preventive test on Septoria tritici (wheat); conditions: 500 ppm of active ingredient; wheat plants sprayed 24 hours before contamination; grading 24 days after contamination vs control plants
Protocol: as §1, §3
After 24 hours, the plants are contaminated by spraying the leaves with an aqueous suspension of cryopreserved Septoria tritici spores (500 000 spores per mL). The contaminated wheat plants are incubated for 72 hours at 18° C. and at 100% relative humidity, and then for 21 days at 90% relative humidity.
Grading (% of efficacy) is carried out 24 days after the contamination, in comparison with the control plants.
Under these conditions, good (at least 70%) to total protection is observed at a dose of 500 ppm of active ingredient with the following compounds from table F: […]

[6] = Table 1, compounds of formula (I)
[7] = Table 2, compounds of formula (II)

`Cc1nc(C(F)F)c(C(=O)N(Cc2ccccc2[Si](C)(C)c2ccc(-c3ccccc3)cc2)C2CC2)s1` [I.17] showed a logP [1, 6] of 5.93.

`COc1ccc([Si](C)(C)c2ccccc2CN(C(=O)c2c(C(F)F)nn(C)c2F)C2CC2)cn1` [I.38] gave a logP [1, 6] of 4.13.

`C[Si](C)(c1ccc(-c2ccccc2)cc1)c1ccccc1CNC1CC1` [II.3, N-{2-[biphenyl-4-yl(dimethyl)silyl]benzyl}cyclopropanamine] showed a chromatographic logP [1, 7] of 2.39.

`Cn1nc(C(F)F)c(C(=O)N(Cc2ccccc2[Si](C)(C)c2ccc(Cl)cc2)C2CC2)c1F` [I.6] gave an Efficacy [2] of 100%, an Efficacy [3] of 94% and an Efficacy [4] of 100%. For the same molecule, the logP [1, 6] was 5.19.

In the case of `C[Si](C)(c1ccccc1)c1ccccc1CNC1CC1` [II.1, N-{2-[dimethyl(phenyl)silyl]benzyl}cyclopropanamine], the chromatographic logP [1, 7] was 1.95.

For `Cc1cc(C(=O)N(Cc2ccccc2[Si](C)(C)c2ccc(Oc3ccccc3)cc2)C2CC2)c(C)o1` [I.21], the logP [1, 6] was 6.33.

Work on `Cc1nc(C(F)F)c(C(=O)N(Cc2ccccc2[Si](C)(C)c2cccc3ccccc23)C2CC2)s1` [I.30] yielded a logP [1, 6] of 5.31.

With `Cn1cc(C(=O)N(Cc2ccccc2[Si](C)(C)c2ccc(Cl)cc2)C2CC2)c(C(F)F)n1` [I.7] the Efficacy [2] was 86%, the Efficacy [3] was 78% and the Efficacy [4] was 70%. For the same molecule, the logP [1, 6] was 4.81.

`C[Si](C)(c1ccc(-c2ccccc2)cc1)c1ccccc1CN(C(=O)c1ccsc1I)C1CC1` [I.16] gave a logP [1, 6] of 6.39.

Work on `COc1ccc([Si](C)(C)c2ccccc2CN(C(=O)c2c(C(F)F)nn(C)c2Cl)C2CC2)cn1` [I.39] yielded a logP [1, 6] of 4.25.

With `Cn1cc(C(=O)N(Cc2ccccc2[Si](C)(C)c2ccc(Cl)cc2)C2CC2)c(C(F)F)c1` [I.10] the logP [1, 6] was 5.19.

For `Cn1cc(C(=O)N(Cc2ccccc2[Si](C)(C)c2ccccc2)C2CC2)c(C(F)F)n1` [I.3], the Efficacy [5] was 80%, the Efficacy [2] was 93% and the Efficacy [3] was 83%. It also gave an Efficacy [4] of 93% and a logP [1, 6] of 4.41.

Molecule `C[Si](C)(c1ccc(Cl)cc1)c1ccccc1CNC1CC1` [II.2, N-{2-[(4-chlorophenyl)(dimethyl)silyl]benzyl}cyclopropanamine] has a chromatographic logP [1, 7] of 2.07.

With `C[Si](C)(c1ccc(Oc2ccccc2)cc1)c1ccccc1CN(C(=O)c1ccsc1I)C1CC1` [I.22] the logP [1, 6] was 6.36.

For `C[Si](C)(c1ccc(Oc2ccccc2)cc1)c1ccccc1CNC1CC1` [II.4, N-{2-[dimethyl(4-phenoxyphenyl)silyl]benzyl}cyclopropanamine], the chromatographic logP [1, 7] was 2.42.

`COc1ccc([Si](C)(C)c2ccccc2CNC2CC2)cn1` [II.8, N-{2-[(6-methoxypyridin-3-yl)(dimethyl)silyl]benzyl}cyclopropanamine] showed a chromatographic logP [1, 7] of 1.86.

`Cn1nc(C(F)F)c(C(=O)N(Cc2ccccc2[Si](C)(C)c2ccc(-c3ccccc3)cc2)C2CC2)c1F` [I.13] showed a logP [1, 6] of 5.71.

With `Cn1cc(C(=O)N(Cc2ccccc2[Si](C)(C)c2cccs2)C2CC2)c(C(F)F)n1` [I.31] the Efficacy [5] was 96%, the Efficacy [2] was 96% and the Efficacy [3] was 75%. The Efficacy [4] was 100% and the logP [1, 6] was 4.24.

`Cc1nc(C(F)F)c(C(=O)N(Cc2ccccc2[Si](C)(C)c2ccc(Oc3ccccc3)cc2)C2CC2)s1` [I.24] showed a logP [1, 6] of 5.81.

With `Cn1cc(C(=O)N(Cc2ccccc2[Si](C)(C)c2ccc(-c3ccccc3)cc2)C2CC2)c(C(F)F)n1` [I.14] the logP [1, 6] was 5.36.

In the case of `Cn1cc(C(=O)N(Cc2ccccc2[Si](C)(C)c2cccs2)C2CC2)c(C(F)F)c1` [I.37], the logP [1, 6] was 4.59.

In the case of `C[Si](C)(c1cccs1)c1ccccc1CN(C(=O)c1ccsc1I)C1CC1` [I.34], the logP [1, 6] was 5.28.

Work on `Cc1cc(C(=O)N(Cc2ccccc2[Si](C)(C)c2ccc(Cl)cc2)C2CC2)c(C)o1` [I.9] yielded a logP [1, 6] of 5.78.

Work on `Cn1nc(C(F)F)c(C(=O)N(Cc2ccccc2[Si](C)(C)c2ccccc2)C2CC2)c1F` [I.4] yielded an Efficacy [5] of 100%, an Efficacy [2] of 100% and an Efficacy [3] of 92%. It also gave an Efficacy [4] of 100% and a logP [1, 6] of 4.78.

`Cc1cc(C(=O)N(Cc2ccccc2[Si](C)(C)c2ccc(-c3ccccc3)cc2)C2CC2)c(C)o1` [I.15] showed a logP [1, 6] of 6.39.

In the case of `Cn1cc(C(=O)N(Cc2ccccc2[Si](C)(C)c2cccc3ccccc23)C2CC2)c(C(F)F)c1` [I.28], the logP [1, 6] was 5.19.

In the case of `CCc1nn(C)c(F)c1C(=O)N(Cc1ccccc1[Si](C)(C)c1ccccc1)C1CC1` [I.2], the Efficacy [3] was 83%, the Efficacy [4] was 100% and the logP [1, 6] was 4.81.

Molecule `C[Si](C)(c1ccc(Cl)cc1)c1ccccc1CN(C(=O)c1ccsc1I)C1CC1` [I.11] has a logP [1, 6] of 5.81.

For `C[Si](C)(c1cccs1)c1ccccc1CNC1CC1` [II.6, N-{2-[dimethyl(2-thienyl)silyl]benzyl}cyclopropanamine], the chromatographic logP [1, 7] was 1.76.

Work on `C[Si](C)(c1ccccc1CNC1CC1)c1cccc2ccccc12` [II.5, N-{2-[dimethyl(1-naphthyl)silyl]benzyl}cyclopropanamine] yielded a chromatographic logP [1, 7] of 2.11.

Molecule `Cc1nc(C(F)F)c(C(=O)N(Cc2ccccc2[Si](C)(C)c2cccs2)C2CC2)s1` [I.36] has a logP [1, 6] of 4.74.

For `Cn1cc(C(=O)N(Cc2ccccc2[Si](C)(C)c2cccc3ccccc23)C2CC2)c(C(F)F)n1` [I.26], the logP [1, 6] was 4.83.

For `Cc1cc(C(=O)N(Cc2ccccc2[Si](C)(C)c2cccs2)C2CC2)c(C)o1` [I.35], the logP [1, 6] was 5.19.

With `Cc1cc(C(=O)N(Cc2ccccc2[Si](C)(C)c2cccc3ccccc23)C2CC2)c(C)o1` [I.27] the logP [1, 6] was 5.87.

`Cn1cc(C(=O)N(Cc2ccccc2[Si](C)(C)c2ccc(-c3ccccc3)cc2)C2CC2)c(C(F)F)c1` [I.18] gave a logP [1, 6] of 5.68.

With `CC1CC1NCc1ccccc1[Si](C)(C)c1ccccc1` (stereo not shown) [II.7] the logP [1, 7] was 2.70.

Work on `Cc1nc(C(F)F)c(C(=O)N(Cc2ccccc2[Si](C)(C)c2ccc(Cl)cc2)C2CC2)s1` [I.12] yielded a logP [1, 6] of 5.31.

With `Cn1nc(C(F)F)c(C(=O)N(Cc2ccccc2[Si](C)(C)c2ccccc2)C2CC2)c1Cl` [I.5] the Efficacy [3] was 83%, the Efficacy [4] was 79% and the logP [1, 6] was 4.88.

`Cn1nc(C(F)F)c(C(=O)N(Cc2ccccc2[Si](C)(C)c2cccs2)C2CC2)c1Cl` [I.32] showed an Efficacy [2] of 71% and a logP [1, 6] of 4.72.

With `Cn1nc(C(F)F)c(C(=O)N(Cc2ccccc2[Si](C)(C)c2cccs2)C2CC2)c1F` [I.33] the Efficacy [5] was 100%, the Efficacy [2] was 100% and the Efficacy [4] was 100%. For the same molecule, the logP [1, 6] was 4.61.

`Cn1cc(C(=O)N(Cc2ccccc2[Si](C)(C)c2ccc(Oc3ccccc3)cc2)C2CC2)c(C(F)F)c1` [I.23] showed a logP [1, 6] of 5.62.
